Key:
[1] = Liquid; for mass density: 298.15 K, 101.33 kPa, Vibrating tube method; for vapor or sublimation pressure: Ebulliometric method (Recirculating still)
[2] = refractive index (Na D-line) (dimensionless); conditions: 101.33 kPa, Liquid, Standard Abbe refractometry
[3] = xn = mol fraction of the nth substance listed; conditions: 101 kPa, Liquid, Vibrating tube method
[4] = excess molar enthalpy (molar enthalpy of mixing); xn = mol fraction of the nth substance listed; conditions: 298.15 K, 101 kPa, Liquid, Flow calorimetry

CCOC(C)(C)CC [1,1-dimethylpropyl ethyl ether]
Conditions	mass density [kg/m3]
[1]	760.52

Conditions	refractive index	vapor or sublimation pressure [kPa]
[1], 324.31 K	–	17.7
[1], 331.83 K	–	24
[1], 343.83 K	–	37.6
[1], 345.82 K	–	40.3
[1], 349.21 K	–	45.4
[1], 351.71 K	–	49.5
[1], 355.12 K	–	55.5
[1], 357.39 K	–	59.9
[1], 358.01 K	–	61
[1], 358.09 K	–	61.3
[1], 359.96 K	–	65.1
[1], 362.13 K	–	69.7
[1], 364.42 K	–	74.9
[1], 366.44 K	–	79.6
[1], 367.36 K	–	81.8
[1], 368.16 K	–	83.8
[1], 373.7 K	–	98.9
[1], 374.41 K	–	101
[2], 293.15 K	1.39112	–
[2], 298.15 K	1.38858	–

CCOC(C)(C)CC [1,1-dimethylpropyl ethyl ether] + CCC(C)(C)O
[3]
Conditions	mass density [kg/m3]
297.7 K, x1 = 0.1005	798.8
297.71 K, x1 = 0.2006	793.2
297.71 K, x1 = 0.3013	788.2
297.71 K, x1 = 0.4018	783.4
297.71 K, x1 = 0.5013	778.9
297.71 K, x1 = 0.601	774.7
297.71 K, x1 = 0.7003	770.9
297.71 K, x1 = 0.8011	767.1
297.72 K, x1 = 0.9003	763.7

[4]
Conditions	excess molar enthalpy [kcal/mol]
x1 = 0.1005	0.0565
x1 = 0.2006	0.107
x1 = 0.3013	0.151
x1 = 0.4018	0.187
x1 = 0.5013	0.214
x1 = 0.601	0.23
x1 = 0.7003	0.232
x1 = 0.8011	0.215
x1 = 0.9003	0.159

CCOC(C)(C)CC [1,1-dimethylpropyl ethyl ether] + CCC(C)O
[3]
Conditions	mass density [kg/m3]
297.67 K, x1 = 0.7012	770.2
297.67 K, x1 = 0.8001	766.9
297.68 K, x1 = 0.5005	777.9
297.68 K, x1 = 0.6008	774
297.68 K, x1 = 0.899	763.8
297.69 K, x1 = 0.1011	796.8
297.69 K, x1 = 0.2007	791.6
297.69 K, x1 = 0.3008	786.6
297.69 K, x1 = 0.4013	782

[4]
Conditions	excess molar enthalpy [kcal/mol]
x1 = 0.1011	0.0648
x1 = 0.2007	0.123
x1 = 0.3008	0.172
x1 = 0.4013	0.208
x1 = 0.5005	0.229
x1 = 0.6008	0.236
x1 = 0.7012	0.226
x1 = 0.8001	0.196
x1 = 0.899	0.133

CCOC(C)(C)CC [1,1-dimethylpropyl ethyl ether] + CCCCO
mass density [kg/m3], [3]
Conditions	x1 = 0.101	x1 = 0.2005	x1 = 0.3022	x1 = 0.401	x1 = 0.5023	x1 = 0.6005	x1 = 0.7009	x1 = 0.7999	x1 = 0.902
297.7 K	801	796.1	–	786.6	782	–	–	–	764.8
297.71 K	–	–	791.1	–	–	777.5	773.3	769.2	–

[4]
Conditions	excess molar enthalpy [kcal/mol]
x1 = 0.101	0.0285
x1 = 0.2005	0.06
x1 = 0.3022	0.0905
x1 = 0.401	0.116
x1 = 0.5023	0.135
x1 = 0.6005	0.147
x1 = 0.7009	0.147
x1 = 0.7999	0.133
x1 = 0.902	0.0913

CCC(C)(C)O [2-methylbutan-2-ol]
Conditions	mass density [kg/m3]
[1]	805.29

Conditions	refractive index	vapor or sublimation pressure [kPa]
[1], 334.98 K	–	18.8
[1], 344.45 K	–	29.4
[1], 351.18 K	–	39.5
[1], 354.1 K	–	44.7
[1], 356.81 K	–	50.1
[1], 358.12 K	–	52.8
[1], 359.14 K	–	55
[1], 361.21 K	–	59.7
[1], 363.43 K	–	65.2
[1], 365.23 K	–	69.8
[1], 367.1 K	–	75
[1], 368.88 K	–	80.1
[1], 371.04 K	–	86.7
[1], 375.78 K	–	102.7
[2], 298.15 K	1.40248	–

CCCCO [butan-1-ol]
Conditions	mass density [kg/m3]
[1]	805.97

Conditions	refractive index	vapor or sublimation pressure [kPa]
[1], 345.91 K	–	15.6
[1], 358.05 K	–	27.4
[1], 359.46 K	–	29.4
[1], 366.26 K	–	39.3
[1], 369.57 K	–	45.1
[1], 372.02 K	–	49.8
[1], 374.43 K	–	54.9
[1], 376.72 K	–	60.1
[1], 378.46 K	–	64.2
[1], 380.74 K	–	70.2
[1], 382.55 K	–	75.1
[1], 384.3 K	–	80.1
[1], 385.78 K	–	84.6
[1], 390.41 K	–	100
[2], 298.15 K	1.3972	–

CCC(C)O (configuration not stated) [butan-2-ol]
Conditions	mass density [kg/m3]
[1]	802.71

Conditions	refractive index	vapor or sublimation pressure [kPa]
[1], 330.11 K	–	15.7
[1], 337.99 K	–	23.3
[1], 345.15 K	–	32.7
[1], 354.49 K	–	49.4
[1], 357.15 K	–	55.3
[1], 358.16 K	–	57.3
[1], 358.98 K	–	59.6
[1], 362.88 K	–	69.9
[1], 365.08 K	–	76.3
[1], 366.13 K	–	79.5
[1], 367.13 K	–	82.9
[1], 371.51 K	–	98.3
[1], 372.43 K	–	100.6
[2], 298.15 K	1.3951	–

Reference: the NIST ThermoML archive (doi:10.1021/je300670n)
